Laboratory results as given in ChEMBL document CHEMBL4184210, “Optimization of novel monobactams with activity against carbapenem-resistant Enterobacteriaceae - Identification of LYS228” (Bioorg Med Chem Lett, 2018).
≈ marks a conversion by molar mass, not a printed value. Calls of active or inactive are those of the source. The rule behind the calls is not given here.

How the values were obtained:
[1] = Stability assessed as assessed as Escherichia coli beta-lactamase CTX-M-15-mediated compound hydrolysis by measuring molar enthalpy of hydrolysis at 1 mM by isothermal titration calorimetry; format: ADME; settings: 1000 µM
[2] = tested on: Escherichia coli; experiment: microbe, parasite or virus in culture
[3] = tested on: Escherichia coli; experiment: microbe, parasite or virus in culture; remark: listed apart in the source
[4] = tested on: Klebsiella pneumoniae; experiment: Antimicrobial activity against Klebsiella pneumoniae expressing beta-lactamase NDM-1 infected in neutropenic mouse thigh infection model assessed as compound dose causing 1 log10 CFU reduction in bacterial load dosed subcutaneously every 4 hrs; format: functional
[5] = AUC in rat at 10 mg/kg, iv; format: ADME, organism-based; settings: in vivo
[6] = tested on: Escherichia coli; experiment: microbe, parasite or virus in culture; remark: listed apart in the source
[7] = tested on: Escherichia coli; experiment: microbe, parasite or virus in culture; remark: listed apart in the source
[8] = tested on: Escherichia coli; experiment: microbe, parasite or virus in culture; remark: listed apart in the source
[9] = Stability assessed as assessed as Escherichia coli beta-lactamase KPC-2-mediated compound hydrolysis by measuring molar enthalpy of hydrolysis at 1 mM by isothermal titration calorimetry; format: ADME; settings: 1000 µM
[10] = tested on: Escherichia coli; experiment: microbe, parasite or virus in culture; remark: listed apart in the source
[11] = molecular target: T1, Beta-lactamase SHV-12 (Escherichia coli, UniProt Q7X574); experiment: Stability assessed as assessed as Escherichia coli beta-lactamase SHV-12-mediated compound hydrolysis by measuring molar enthalpy of hydrolysis at 1 mM by isothermal titration calorimetry; format: ADME; settings: 1000 µM
T1 sequence (Q7X574 whole entry): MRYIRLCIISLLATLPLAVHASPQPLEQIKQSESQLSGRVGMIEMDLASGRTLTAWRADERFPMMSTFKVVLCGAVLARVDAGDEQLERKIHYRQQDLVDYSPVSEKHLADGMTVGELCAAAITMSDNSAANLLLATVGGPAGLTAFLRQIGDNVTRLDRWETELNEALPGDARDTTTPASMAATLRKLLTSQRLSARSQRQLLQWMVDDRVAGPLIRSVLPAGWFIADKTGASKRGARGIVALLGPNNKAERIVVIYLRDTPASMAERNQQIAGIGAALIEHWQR

[12] = tested on: Escherichia coli; experiment: microbe, parasite or virus in culture; remark: listed apart in the source
[13] = tested on: Escherichia coli; experiment: microbe, parasite or virus in culture; remark: listed apart in the source
[14] = tested on: Escherichia coli; experiment: microbe, parasite or virus in culture; remark: listed apart in the source
[15] = tested on: Escherichia coli; experiment: microbe, parasite or virus in culture; remark: listed apart in the source
[16] = tested on: Escherichia coli; experiment: microbe, parasite or virus in culture; remark: listed apart in the source
[17] = AUC in dog at 10 mg/kg, iv; format: ADME, organism-based, Canis lupus familiaris; settings: in vivo
[18] = tested on: Escherichia coli; experiment: microbe, parasite or virus in culture; remark: listed apart in the source
[19] = tested on: Escherichia coli; experiment: microbe, parasite or virus in culture; remark: listed apart in the source
[20] = tested on: Escherichia coli; experiment: microbe, parasite or virus in culture; remark: listed apart in the source
[21] = tested on: Escherichia coli; experiment: microbe, parasite or virus in culture; remark: listed apart in the source
[22] = tested on: Escherichia coli; experiment: microbe, parasite or virus in culture; remark: listed apart in the source
[23] = Drug excretion in rat assessed as unchanged parent drug level at 10 mg/kg, iv; format: ADME, organism-based; settings: in vivo, read-out: Drug excretion
[24] = AUC in mouse at […], iv; format: ADME, organism-based; settings: in vivo
[25] = Drug excretion in dog assessed as unchanged parent drug level at 10 mg/kg, iv; format: ADME, organism-based, Canis lupus familiaris; settings: in vivo, read-out: Drug excretion
[26] = tested on: Escherichia coli; experiment: microbe, parasite or virus in culture; remark: listed apart in the source
[27] = tested on: Escherichia coli; experiment: microbe, parasite or virus in culture; remark: listed apart in the source
[28] = tested on: Escherichia coli; experiment: microbe, parasite or virus in culture; remark: listed apart in the source
[29] = tested on: Escherichia coli; experiment: microbe, parasite or virus in culture; remark: listed apart in the source
[30] = tested on: Escherichia coli; experiment: microbe, parasite or virus in culture; remark: listed apart in the source
[31] = tested on: Escherichia coli; experiment: microbe, parasite or virus in culture; remark: listed apart in the source
[32] = tested on: Escherichia coli; experiment: microbe, parasite or virus in culture; remark: listed apart in the source
[33] = tested on: Escherichia coli; experiment: microbe, parasite or virus in culture; remark: listed apart in the source
[34] = tested on: Escherichia coli; experiment: Antimicrobial activity against Escherichia coli expressing beta-lactamase KPC-2 by CLSI broth microdilution method; format: functional
[35] = tested on: Escherichia coli; experiment: microbe, parasite or virus in culture; remark: listed apart in the source
[36] = tested on: Escherichia coli; experiment: Antimicrobial activity against Escherichia coli expressing beta-lactamase VEB-1 by CLSI broth microdilution method; format: functional
[37] = Chemical stability in pH 7.4 potassium phosphate buffer assessed as half life for compound hydrolysis at 37 degC by UPLC and mass spectrometry; format: physicochemical
[38] = tested on: Escherichia coli; experiment: microbe, parasite or virus in culture; remark: listed apart in the source
[39] = tested on: Escherichia coli; experiment: microbe, parasite or virus in culture; remark: listed apart in the source
[40] = tested on: Escherichia coli; experiment: microbe, parasite or virus in culture; remark: listed apart in the source
[41] = tested on: Escherichia coli; experiment: microbe, parasite or virus in culture; remark: listed apart in the source
[42] = tested on: Escherichia coli; experiment: microbe, parasite or virus in culture; remark: listed apart in the source
[43] = tested on: Escherichia coli; experiment: microbe, parasite or virus in culture; remark: listed apart in the source
[44] = tested on: Escherichia coli; experiment: Antimicrobial activity against Escherichia coli expressing beta-lactamase NDM-5 by CLSI broth microdilution method; format: functional
[45] = tested on: Escherichia coli; experiment: microbe, parasite or virus in culture; remark: listed apart in the source
[46] = tested on: Escherichia coli; experiment: microbe, parasite or virus in culture; remark: listed apart in the source
[47] = tested on: Escherichia coli; experiment: Antimicrobial activity against Escherichia coli expressing beta-lactamase NDM-1 by CLSI broth microdilution method; format: functional
[48] = tested on: Escherichia coli; experiment: microbe, parasite or virus in culture; remark: listed apart in the source
[49] = tested on: Escherichia coli; experiment: microbe, parasite or virus in culture; remark: listed apart in the source
[50] = tested on: Escherichia coli; experiment: microbe, parasite or virus in culture; remark: listed apart in the source
[51] = tested on: Escherichia coli; experiment: microbe, parasite or virus in culture; remark: listed apart in the source
[52] = tested on: Escherichia coli; experiment: microbe, parasite or virus in culture; remark: listed apart in the source
[53] = tested on: Escherichia coli; experiment: microbe, parasite or virus in culture; remark: listed apart in the source
[54] = tested on: Escherichia coli; experiment: microbe, parasite or virus in culture; remark: listed apart in the source

## C[C@H]1[C@H](NC(=O)/C(=N\OC(C)(C)C(=O)O)c2csc(N)n2)C(=O)N1S(=O)(=O)O [AZTREONAM]
[1]
  Stability: Unstable
[2]
  MIC: 8 µg/mL (≈ 18.4 µM)
[3]
  MIC: 4 µg/mL (≈ 9.19 µM)
[4]
  Activity: inactive
[5]
  AUC: 13000 ng·h/mL
[6]
  MIC: 1 µg/mL (≈ 2.3 µM)
[7]
  MIC: 4 µg/mL (≈ 9.19 µM)
[8]
  MIC: 256 µg/mL (≈ 588 µM)
[9]
  Stability: Unstable
[10]
  MIC: > 1020 µg/mL
[11]
  Stability: Unstable
[12]
  MIC: 128 µg/mL (≈ 294 µM)
[13]
  MIC: 4 µg/mL (≈ 9.19 µM)
[14]
  MIC: 8 µg/mL (≈ 18.4 µM)
[15]
  MIC: 8 µg/mL (≈ 18.4 µM)
[16]
  MIC: 8 µg/mL (≈ 18.4 µM)
[17]
  AUC: 13000 ng·h/mL
[18]
  MIC: 16 µg/mL (≈ 36.7 µM)
[19]
  MIC: 16 µg/mL (≈ 36.7 µM)
[20]
  MIC: 1 µg/mL (≈ 2.3 µM)
[21]
  MIC: 1 µg/mL (≈ 2.3 µM)
[22]
  MIC: 16 µg/mL (≈ 36.7 µM)
[23]
  dose excreted: 40%
[24]
  AUC: 5000 ng·h/mL
[25]
  dose excreted: 53%
[26]
  MIC: 1 µg/mL (≈ 2.3 µM)
[27]
  MIC: 16 µg/mL (≈ 36.7 µM)

## NC(=O)OC[C@@H]1[C@H](NC(=O)/C(=N\OCC(=O)O)c2csc(N)n2)C(=O)N1S(=O)(=O)O [CARUMONAM]
[1]
  Stability: Stable
[28]
  MIC: 0.125 µg/mL (≈ 0.268 µM)
[2]
  MIC: 8 µg/mL (≈ 17.2 µM)
[29]
  MIC: 0.125 µg/mL (≈ 0.268 µM)
[3]
  MIC: 4 µg/mL (≈ 8.58 µM)
[30]
  MIC: 64 µg/mL (≈ 137 µM)
[6]
  MIC: 0.125 µg/mL (≈ 0.268 µM)
[7]
  MIC: 4 µg/mL (≈ 8.58 µM)
[8]
  MIC: > 64 µg/mL
[9]
  Stability: Stable
[10]
  MIC: > 64 µg/mL
[11]
  Stability: Unstable
[12]
  MIC: 64 µg/mL (≈ 137 µM)
[31]
  MIC: 0.125 µg/mL (≈ 0.268 µM)
[32]
  MIC: 16 µg/mL (≈ 34.3 µM)
[13]
  MIC: 4 µg/mL (≈ 8.58 µM)
[33]
  MIC: 0.125 µg/mL (≈ 0.268 µM)
[34]
  MIC: 1 µg/mL (≈ 2.14 µM)
[35]
  MIC: 0.125 µg/mL (≈ 0.268 µM)
[14]
  MIC: 1 µg/mL (≈ 2.14 µM)
[15]
  MIC: 0.5 µg/mL (≈ 1.07 µM)
[36]
  MIC: > 64 µg/mL
[37]
  half-life: > 83.3 days
[16]
  MIC: 4 µg/mL (≈ 8.58 µM)
[38]
  MIC: 0.125 µg/mL (≈ 0.268 µM)
[39]
  MIC: 32 µg/mL (≈ 68.6 µM)
[40]
  MIC: 0.125 µg/mL (≈ 0.268 µM)
[18]
  MIC: 0.5 µg/mL (≈ 1.07 µM)
[41]
  MIC: 0.125 µg/mL (≈ 0.268 µM)
[42]
  MIC: 0.125 µg/mL (≈ 0.268 µM)
[19]
  MIC: 2 µg/mL (≈ 4.29 µM)
[43]
  MIC: > 64 µg/mL
[20]
  MIC: 1 µg/mL (≈ 2.14 µM)
[44]
  MIC: 0.125 µg/mL (≈ 0.268 µM)
[21]
  MIC: 0.5 µg/mL (≈ 1.07 µM)
[45]
  MIC: 0.125 µg/mL (≈ 0.268 µM)
[46]
  MIC: 0.125 µg/mL (≈ 0.268 µM)
[47]
  MIC: 0.125 µg/mL (≈ 0.268 µM)
[48]
  MIC: 4 µg/mL (≈ 8.58 µM)
[22]
  MIC: 0.125 µg/mL (≈ 0.268 µM)
[49]
  MIC: 0.125 µg/mL (≈ 0.268 µM)
[50]
  MIC: 0.125 µg/mL (≈ 0.268 µM)
[51]
  MIC: 0.125 µg/mL (≈ 0.268 µM)
[26]
  MIC: 16 µg/mL (≈ 34.3 µM)
[52]
  MIC: 0.06 to 0.125 µg/mL (≈ 0.129 to 0.268 µM)
[53]
  MIC: > 64 µg/mL
[27]
  MIC: 0.5 µg/mL (≈ 1.07 µM)
[54]
  MIC: 4 µg/mL (≈ 8.58 µM)
